According to patent US7317014B2, “Bio-active pyrimidine molecules” (Orchid Research Laboratories, Ltd., priority 2002, dated 2008):

Columns and labels:
[1] = tested on: TNF-α; assay: TNF-α production from LPS-stimulated human monocytes (ELISA); type: cell-based; conditions: Monocyte; for inhibition at 1 µM: Conc. 1 μM
[2] = tested on: NCI-H460; assay: DTP human tumor cell line one-dose prescreen, NCI-H460; type: cell-based; conditions: Concentration (100 μm), Lung NCI-H460, test/control (T/C)
Experimental: (§1) The current assay utilizes a 384 well plate format and fluorescent staining technologies resulting in greater screening capacity for testing of synthetic samples. Cell Lines The cell lines of the cancer screening panel are grown in RPMI 1640 medium containing 5% fetal bovine serum and 2 mM L-glutamine. For a typical screening experiment, cells are inoculated into 96 well microtiter plates in 100 μL. After cell inoculation, the microtiter plates are incubated at 37° C., 5% CO2, 95% air and 100% relative humidity for 24 h prior to addition of experimental drugs. The cells are plated a densities of 5000 cells/well (MCF7), 1000 cells/well (NCI-H460), and 7500 cells/well (SF-268) to allow for varying doubling time of the cell lines. Each plate contains all three cell lines, a series of dilutions of standard agents, total kill wells and appropriate controls. Plates are incubated under standard conditions for 24 hours prior to addition of experimental compounds or extracts. Addition of Experimental Agents (Pure Compounds) […] Two standard drugs, meaning that their activities against the cell lines are well documented, are tested against each cell line: NSC 19893 (5-FU) and NSC 123127 (Adriamycin). Endpoint Measurement After compound addition, plates are incubated at standard conditions for ?hours, 10 μl/well Alamar Blue is added and the plates are incubated for an additional 4 hours. Fluorescence is measured using an excitation wavelength of 530 nm and an emission wavelength of 590 nm. Calculation of Percent Test Cell Growth/Control (Untreated) Cell Growth (T/C) Calculation of Percent Test Cell Growth/Control (Untreated) Cell Growth (T/C) Percent growth is calculated on a plate-by-plate basis for test wells relative to control wells. Percent Growth is expressed as the ratio of fluorescence of the test well to the average fluorescence of the control wells ×100.

[3] = tested on: MCF7; assay: DTP human tumor cell line one-dose prescreen, MCF7; type: cell-based; conditions: Concentration (100 μm), Breast MCF7, test/control (T/C)
Experimental: as §1

[4] = tested on: SF-268; assay: DTP human tumor cell line one-dose prescreen, SF-268; type: cell-based; conditions: Concentration (100 μm), CNS SF-268, test/control (T/C)
Experimental: as §1

[5] = tested on: Male Wistar rats; assay: Rat carrageenan paw edema test; type: in vivo; conditions: oral
[6] = biological target: T1, COX-2 (Homo sapiens, UniProt P35354); assay: Human whole blood assay, COX-2 inhibition (PGE2 after LPS); type: cell-based; conditions: Conc. 0.1 μM, 24 h
T1 construct: incubation of human blood with lipopolysaccharide (LPS), which induces COX-2 production in the blood; endogenous in cells; host or cells: fresh human whole blood from male volunteers, LPS-stimulated, aspirin-pretreated
T1 sequence (P35354 18-604): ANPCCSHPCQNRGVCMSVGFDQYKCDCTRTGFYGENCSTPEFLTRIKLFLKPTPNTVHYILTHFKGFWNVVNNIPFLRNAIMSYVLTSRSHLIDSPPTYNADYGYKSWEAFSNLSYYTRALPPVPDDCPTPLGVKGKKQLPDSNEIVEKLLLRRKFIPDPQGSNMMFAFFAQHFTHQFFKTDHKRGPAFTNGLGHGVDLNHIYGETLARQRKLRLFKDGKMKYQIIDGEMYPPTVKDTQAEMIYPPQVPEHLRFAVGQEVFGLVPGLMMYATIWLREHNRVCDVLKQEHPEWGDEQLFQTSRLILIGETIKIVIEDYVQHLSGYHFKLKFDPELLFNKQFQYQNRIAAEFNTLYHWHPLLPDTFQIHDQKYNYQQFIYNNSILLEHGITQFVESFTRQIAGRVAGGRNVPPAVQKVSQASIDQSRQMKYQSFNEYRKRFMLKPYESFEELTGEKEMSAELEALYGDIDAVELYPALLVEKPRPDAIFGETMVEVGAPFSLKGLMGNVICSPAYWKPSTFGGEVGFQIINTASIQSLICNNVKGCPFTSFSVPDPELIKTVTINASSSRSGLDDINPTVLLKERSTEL
Experimental: The COX-2 inhibition activity of the compounds illustrated in the examples was determined by the following method. Human Whole Blood Assay Human whole blood provides a protein and cell rich milieu appropriate for the study of biochemical efficacy of anti-inflammatory compounds such as selective COX-2 inhibitors. […] This is correlating with the observation that COX-2 inhibitors have no effect on prostaglandin E2 (PGE2) production in normal blood. These inhibitors are active only after incubation of human blood with lipopolysaccharide (LPS), which induces COX-2 production in the blood. Method Fresh blood was collected in tubes containing potassium EDTA by vein puncture from male volunteers. The subjects should have no apparent inflammatory conditions and not taken NSAIDs for atleast 7 days prior to blood collection. Blood was treated with aspirin in vitro (10 μg/ml, at time zero) to inactivate COX-1, and then with LPS (10 μg/ml) along with test agents or vehicle. The blood was incubated for 24 h at 37° C., after which the tubes were centrifuged, the plasma was separated and stored at −80° C. (J. Pharmacol. Exp. Ther., 271, 1705, 1994; Proc. Natl. Acad. Sci. USA., 96, 7563, 1999). The plasma was assayed for PGE2 using Cayman ELISA kit as per the procedure outlined by the manufacturer (Cayman Chemicals, Ann Arbor, USA). The plasma was also tested for TNF-α, IL-1β, and IL-6 using appropriate human ELISA kit as per the procedure of manufacturer (Cayman Chemicals, Ann Arbor, USA).

| SMILES | inhibition at 10 µM ([1]; Conc. 10 μM) [%] | Percentage Growth Lung NCI-H460 [2] | Percentage Growth Breast MCF7 [3] | Percentage Growth CNS SF-268 [4] | melting point [°C] | Rat Paw Edema model % Inhibition (10 mg/kg body weight) [5] [%] | inhibition at 0.1 µM [6] [%] | inhibition at 1 µM [1] [%] |
| --- | --- | --- | --- | --- | --- | --- | --- | --- |
| CS(=O)(=O)c1ccc(-c2nc(C(F)(F)F)nc(Cl)c2-c2ccccc2)cc1 [Example 4, 4-chloro-6-[4-(methylsulfonyl)phenyl]-5-phenyl-2-(trifluoromethyl)pyrimidine] | 55.4 | 0 | 0 | 3 | 156 to 159 | – | – | – |
| CS(=O)(=O)c1ccc(-c2nc(C(F)(F)F)nc(Cl)c2-c2ccc(F)cc2)cc1 [Example 6, 4-chloro-5-(4-fluorophenyl)-6-[4-(methylsulfonyl)phenyl]-2-(trifluoromethyl)pyrimidine] | – | 0 | 0 | 12 | 195 to 197 | 64 | 51.9 | 51.5 |
| Clc1ccc(-c2nc(Cl)nc(Cl)c2-c2ccccc2)cc1 [Example 9, 6-(4-chlorophenyl)-2,4-dichloro-5-phenylpyrimidine] | – | 0 | 1 | 1 | 129 to 131 | 42.8 | 60.5 | – |
| COc1ccc(-c2c(Cl)nc(Cl)nc2-c2ccccc2)cc1 [Example 11, 2,4-dichloro-5-(4-methoxyphenyl)-6-phenylpyrimidine] | – | 0 | 5 | 2 | 132 to 134 | – | – | 29.2 |
| CSc1ccc(-c2c(Cl)nc(Cl)nc2-c2ccc(Cl)cc2)cc1 [Example 13, 2,4-dichloro-6-(4-chlorophenyl)-5-[4-(methylthio)phenyl]pyrimidine] | – | – | – | – | 144 to 146 | 47.8 | 45.7 | – |
